We go through 2 compounds from ChEMBL document CHEMBL5154936, “Scaffold Hopping Strategy to Identify Prostanoid EP4 Receptor Antagonists for Cancer Immunotherapy” (J Med Chem, 2022).

Molecules are shown by their SMILES.

The nature of data set [1]: Metabolic stability in human liver microsomes assessed as parent compound remaining at 10 uM measured after 60 mins. It is filed as ADME, Microsome. The following applies: read-out: Stability.
Data set [2] in a line: Metabolic stability in human liver microsomes assessed as intrinsic clearance. It is filed as ADME, Microsome. Particulars: read-out: CLH. For orientation: Liver microsomes are vesicles of endoplasmic reticulum, rich in cytochrome P450 enzymes.
Data set [3] in a line: Metabolic stability in mouse liver microsomes assessed as parent compound remaining at 10 uM measured after 60 mins. The format is ADME, Microsome. Particulars: read-out: Stability.
Data set [4] can be described thus: Metabolic stability in mouse liver microsomes assessed as half life. It is filed as ADME, Microsome.
The target of data set [5] is T1, Prostaglandin E2 receptor EP1 subtype (Homo sapiens, UniProt P34995).
T1 sequence (P34995 whole entry): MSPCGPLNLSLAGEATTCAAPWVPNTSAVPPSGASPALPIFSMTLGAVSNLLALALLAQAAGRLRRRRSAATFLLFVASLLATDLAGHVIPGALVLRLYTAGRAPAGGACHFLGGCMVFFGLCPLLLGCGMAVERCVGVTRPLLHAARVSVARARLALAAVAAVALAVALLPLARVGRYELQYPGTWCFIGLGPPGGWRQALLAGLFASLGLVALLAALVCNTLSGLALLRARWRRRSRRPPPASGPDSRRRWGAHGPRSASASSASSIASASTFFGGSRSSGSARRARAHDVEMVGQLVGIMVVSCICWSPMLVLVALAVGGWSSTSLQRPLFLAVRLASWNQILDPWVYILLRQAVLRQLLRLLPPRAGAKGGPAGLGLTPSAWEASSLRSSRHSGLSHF
Kind of data set: Antagonist activity at human EP1 receptor transfected in CHO/Galpha16 cells preincubated for 15 mins followed by PGE2 addition by calcium flux assay. It is filed as functional, cell-based. In general terms: Calcium flux is commonly read through the fluorescence of an indicator in the cells.

Data set [6] concerns the target Prostaglandin E2 receptor EP4 subtype (Mus musculus, UniProt P32240). In words: Antagonist activity at mouse EP4 receptor transfected in CHO/Galpha16 cells preincubated for 15 mins followed by PGE2 addition by calcium flux assay. The format is functional, cell-based.
The target of data set [7] is Prostaglandin E2 receptor EP4 subtype (Homo sapiens, UniProt P35408). Kind of data set: Antagonist activity at human EP4 receptor transfected in CHO/Galpha16 cells preincubated for 15 mins followed by PGE2 addition by calcium flux assay. It is filed as functional, cell-based.
Prostaglandin E2 receptor EP4 subtype (Homo sapiens, UniProt P35408), sequence (P35408 whole entry): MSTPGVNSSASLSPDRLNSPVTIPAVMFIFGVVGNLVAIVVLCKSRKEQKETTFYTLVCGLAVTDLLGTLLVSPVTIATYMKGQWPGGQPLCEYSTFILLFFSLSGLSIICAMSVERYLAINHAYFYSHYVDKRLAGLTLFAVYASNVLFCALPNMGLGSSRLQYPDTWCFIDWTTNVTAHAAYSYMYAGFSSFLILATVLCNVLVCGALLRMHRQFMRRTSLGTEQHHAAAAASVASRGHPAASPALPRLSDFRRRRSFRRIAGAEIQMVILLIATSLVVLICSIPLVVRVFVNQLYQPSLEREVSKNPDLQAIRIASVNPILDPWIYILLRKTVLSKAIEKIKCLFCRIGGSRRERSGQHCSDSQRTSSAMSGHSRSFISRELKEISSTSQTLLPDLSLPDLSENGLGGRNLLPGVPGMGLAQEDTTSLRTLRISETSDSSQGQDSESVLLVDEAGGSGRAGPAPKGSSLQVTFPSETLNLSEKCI
Data set [8] is described as follows: Metabolic stability in mouse liver microsomes assessed as intrinsic clearance. It is filed as ADME, Microsome. Particulars: read-out: CLH.
The target in the next data set is T2, CYP2B6 (Homo sapiens, UniProt P20813).
T2 sequence (P20813 whole entry): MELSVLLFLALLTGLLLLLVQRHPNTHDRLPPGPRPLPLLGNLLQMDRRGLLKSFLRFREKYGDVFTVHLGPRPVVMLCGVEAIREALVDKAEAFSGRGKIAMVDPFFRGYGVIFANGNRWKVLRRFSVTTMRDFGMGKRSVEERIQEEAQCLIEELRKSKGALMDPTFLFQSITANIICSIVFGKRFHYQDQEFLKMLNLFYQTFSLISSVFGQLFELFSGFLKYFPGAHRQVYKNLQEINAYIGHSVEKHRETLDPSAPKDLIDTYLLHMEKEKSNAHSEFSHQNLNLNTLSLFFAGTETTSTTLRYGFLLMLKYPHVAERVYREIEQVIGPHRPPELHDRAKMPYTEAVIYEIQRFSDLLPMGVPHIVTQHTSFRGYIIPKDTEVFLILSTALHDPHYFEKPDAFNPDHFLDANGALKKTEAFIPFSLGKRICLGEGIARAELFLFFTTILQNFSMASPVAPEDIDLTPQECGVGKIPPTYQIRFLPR
Kind of data set: Inhibition of CYP2B6 (unknown origin) at 20 uM. It is filed as ADME.

A further data set addresses CYP2D6 (Homo sapiens, UniProt P10635). Kind of data set: Inhibition of CYP2D6 (unknown origin) at 20 uM. It is filed as ADME.
Data set [9] concerns the target Prostaglandin E2 receptor EP2 subtype (Homo sapiens, UniProt P43116). Kind of data set: Antagonist activity at human EP2 receptor transfected in CHO/Galpha16 cells preincubated for 15 mins followed by PGE2 addition by calcium flux assay. The format is functional, cell-based.
The test system of another data set is EMT6. In words: Cytotoxicity against mouse EMT6 cells assessed as reduction in cell viability incubated for 72 hrs by CCK-8 assay. Particulars: EMT6, 72 h.
In the next data set the test system is Panc02. Kind of data set: Cytotoxicity against mouse Panc02 cells assessed as reduction in cell viability incubated for 72 hrs by CCK-8 assay. Particulars: Panc02, 72 h. In general terms: Tetrazolium assays rely on reduction of a dye to a coloured formazan, in cell work by metabolically active cells.
The target in a further data set is CYP2C9 (Homo sapiens, UniProt P11712). Kind of data set: Inhibition of CYP2C9 (unknown origin) at 20 uM. It is filed as ADME.
CYP2C9, sequence (P11712 whole entry): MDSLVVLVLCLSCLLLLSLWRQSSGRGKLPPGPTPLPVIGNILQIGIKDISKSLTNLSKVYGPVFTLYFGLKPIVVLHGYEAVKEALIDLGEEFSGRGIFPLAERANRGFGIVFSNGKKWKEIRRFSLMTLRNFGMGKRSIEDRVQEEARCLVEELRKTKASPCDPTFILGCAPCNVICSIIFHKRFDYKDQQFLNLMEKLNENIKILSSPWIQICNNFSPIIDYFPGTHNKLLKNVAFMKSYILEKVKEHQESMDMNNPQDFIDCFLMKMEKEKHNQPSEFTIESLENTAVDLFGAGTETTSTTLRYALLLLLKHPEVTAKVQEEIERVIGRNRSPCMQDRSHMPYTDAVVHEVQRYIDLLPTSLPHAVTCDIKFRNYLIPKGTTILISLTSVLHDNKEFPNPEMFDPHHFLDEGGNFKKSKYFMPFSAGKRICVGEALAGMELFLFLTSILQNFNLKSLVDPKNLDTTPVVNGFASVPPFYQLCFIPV
The target in a further data set is CYP2E1 (Homo sapiens, UniProt P05181). Kind of data set: Inhibition of CYP2E1 (unknown origin) at 20 uM. The format is ADME.
CYP2E1, sequence (P05181 whole entry): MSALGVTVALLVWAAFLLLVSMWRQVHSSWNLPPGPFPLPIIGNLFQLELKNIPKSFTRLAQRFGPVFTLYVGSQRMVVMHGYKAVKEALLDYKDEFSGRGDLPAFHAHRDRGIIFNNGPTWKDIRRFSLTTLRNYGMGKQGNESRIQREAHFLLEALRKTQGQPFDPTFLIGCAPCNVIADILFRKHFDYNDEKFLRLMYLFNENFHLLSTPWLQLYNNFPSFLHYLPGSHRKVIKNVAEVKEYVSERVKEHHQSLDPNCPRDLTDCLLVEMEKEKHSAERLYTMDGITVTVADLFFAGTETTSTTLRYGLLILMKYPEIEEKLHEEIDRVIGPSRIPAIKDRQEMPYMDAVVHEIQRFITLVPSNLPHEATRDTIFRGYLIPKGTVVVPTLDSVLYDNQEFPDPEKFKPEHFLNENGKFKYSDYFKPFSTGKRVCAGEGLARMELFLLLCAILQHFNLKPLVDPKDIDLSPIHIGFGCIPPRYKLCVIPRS
The target in data set [10] is T3, Prostaglandin E2 receptor EP3 subtype (Homo sapiens, UniProt P43115).
T3 sequence (P43115 whole entry): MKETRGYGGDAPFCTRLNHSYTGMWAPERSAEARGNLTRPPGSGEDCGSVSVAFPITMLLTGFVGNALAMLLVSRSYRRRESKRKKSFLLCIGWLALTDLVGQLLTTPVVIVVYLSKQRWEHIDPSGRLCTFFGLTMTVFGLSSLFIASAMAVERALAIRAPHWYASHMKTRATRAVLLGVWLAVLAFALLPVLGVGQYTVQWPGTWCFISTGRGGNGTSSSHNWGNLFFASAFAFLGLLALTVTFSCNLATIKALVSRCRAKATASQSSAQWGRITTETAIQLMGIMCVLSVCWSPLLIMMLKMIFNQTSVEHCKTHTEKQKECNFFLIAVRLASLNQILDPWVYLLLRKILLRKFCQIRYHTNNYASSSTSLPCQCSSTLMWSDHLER
In words: Antagonist activity at human EP3 receptor transfected in CHO/Galpha16 cells preincubated for 15 mins followed by PGE2 addition by calcium flux assay. The format is functional, cell-based.

A short description of data set [11]: Cytotoxicity against HEK293 cells assessed as reduction in cell viability incubated for 72 hrs by CCK-8 assay. It is filed as toxicity, cell-based. Particulars: human.
Another data set addresses T4, CYP1A2 (Homo sapiens, UniProt P05177).
T4 sequence (P05177 whole entry): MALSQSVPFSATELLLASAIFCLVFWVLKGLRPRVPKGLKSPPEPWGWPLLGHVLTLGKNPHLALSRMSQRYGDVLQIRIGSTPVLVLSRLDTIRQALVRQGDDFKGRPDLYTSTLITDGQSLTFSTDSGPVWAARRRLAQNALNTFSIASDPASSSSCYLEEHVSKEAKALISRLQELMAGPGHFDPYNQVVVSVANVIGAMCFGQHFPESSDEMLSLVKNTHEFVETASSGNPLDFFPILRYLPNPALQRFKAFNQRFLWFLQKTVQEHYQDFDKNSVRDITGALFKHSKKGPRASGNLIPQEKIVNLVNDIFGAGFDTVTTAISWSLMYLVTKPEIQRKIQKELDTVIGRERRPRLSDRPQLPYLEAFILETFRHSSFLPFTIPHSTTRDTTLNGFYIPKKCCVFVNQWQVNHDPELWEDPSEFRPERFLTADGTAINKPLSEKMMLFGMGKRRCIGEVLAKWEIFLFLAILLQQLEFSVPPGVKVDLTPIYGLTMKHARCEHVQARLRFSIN
In words: Inhibition of CYP1A2 (unknown origin) at 20 uM. It is filed as ADME.

The next data set concerns 3LL cell line. In words: Cytotoxicity against mouse 3LL cells assessed as reduction in cell viability incubated for 72 hrs by CCK-8 assay.
A short description of data set [12]: Metabolic stability in human liver microsomes assessed as half life. It is filed as ADME, Microsome.
For data set [13], the system named is CT26. In words: Cytotoxicity against mouse CT26 cells assessed as reduction in cell viability incubated for 72 hrs by CCK-8 assay. The following applies: CT26, 72 h.
For data set [14], the system named is CT26. In words: Antitumor activity against mouse CT26 cells allografted in BALB/c mouse assessed as tumor growth inhibition at 75 mg/kg, po administered once a day for 14 days. The format is functional. Particulars: CT26, 336 h, time 14 day, read-out: TGI.

CYP2D6, sequence (P10635 whole entry): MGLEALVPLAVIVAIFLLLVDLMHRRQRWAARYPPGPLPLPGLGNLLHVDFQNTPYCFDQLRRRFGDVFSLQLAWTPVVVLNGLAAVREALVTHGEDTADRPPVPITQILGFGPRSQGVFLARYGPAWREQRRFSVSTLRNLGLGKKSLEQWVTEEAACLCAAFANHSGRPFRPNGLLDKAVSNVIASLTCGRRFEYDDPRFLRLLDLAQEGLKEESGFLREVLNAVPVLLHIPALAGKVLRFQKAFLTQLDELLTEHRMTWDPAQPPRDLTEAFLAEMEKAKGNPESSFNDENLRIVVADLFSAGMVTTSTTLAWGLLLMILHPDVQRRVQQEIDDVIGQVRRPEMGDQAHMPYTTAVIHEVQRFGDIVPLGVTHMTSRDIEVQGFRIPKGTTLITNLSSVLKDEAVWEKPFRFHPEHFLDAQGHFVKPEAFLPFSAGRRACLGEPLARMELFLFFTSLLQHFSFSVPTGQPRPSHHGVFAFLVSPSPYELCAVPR
Prostaglandin E2 receptor EP4 subtype (Mus musculus, UniProt P32240), sequence (P32240 whole entry): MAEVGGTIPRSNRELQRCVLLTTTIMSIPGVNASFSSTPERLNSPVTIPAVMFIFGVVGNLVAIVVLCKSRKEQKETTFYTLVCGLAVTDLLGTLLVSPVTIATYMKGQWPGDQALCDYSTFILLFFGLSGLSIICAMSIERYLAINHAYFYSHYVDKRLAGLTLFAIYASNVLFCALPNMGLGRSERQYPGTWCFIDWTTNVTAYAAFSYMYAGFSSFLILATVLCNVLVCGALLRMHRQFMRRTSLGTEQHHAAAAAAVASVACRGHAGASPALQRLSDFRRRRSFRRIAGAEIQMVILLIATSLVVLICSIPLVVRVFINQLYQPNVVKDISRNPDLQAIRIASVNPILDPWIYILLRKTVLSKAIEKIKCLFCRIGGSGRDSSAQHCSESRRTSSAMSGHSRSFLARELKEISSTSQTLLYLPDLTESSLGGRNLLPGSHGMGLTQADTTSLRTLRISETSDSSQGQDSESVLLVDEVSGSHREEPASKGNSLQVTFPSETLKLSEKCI
Prostaglandin E2 receptor EP2 subtype, sequence (P43116 whole entry): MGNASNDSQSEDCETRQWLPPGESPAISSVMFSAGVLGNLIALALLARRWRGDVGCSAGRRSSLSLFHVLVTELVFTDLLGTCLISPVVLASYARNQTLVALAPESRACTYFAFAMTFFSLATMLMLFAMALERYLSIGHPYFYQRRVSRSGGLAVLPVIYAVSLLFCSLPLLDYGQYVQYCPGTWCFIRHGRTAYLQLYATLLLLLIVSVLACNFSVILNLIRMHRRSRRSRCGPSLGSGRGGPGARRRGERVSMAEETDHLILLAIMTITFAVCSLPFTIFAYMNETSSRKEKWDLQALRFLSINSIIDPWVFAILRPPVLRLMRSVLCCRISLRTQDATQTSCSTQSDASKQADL

Turning to `C[C@H](NC(=O)c1c(Cc2ccc(C(F)(F)F)cc2)sc2c1CCOC2)c1ccc(C(=O)O)cc1`, the remaining at 1 h, 10 µM in [1] came to 90%; in [3], 87.9%. Further, the microsomal CLint in data set [2] and in data set [8] was less than 9.6 µL/min/mg in each case. Moreover, the half-life in [4] and in data set [12] was more than 2.42 h in each case. Moreover, the IC50 in data set [5] was more than 10 µM; in data set [6] it was 0.336 µM; in data set [7] it was 0.0021 µM; in data set [9], more than 10 µM; with EMT6 it was more than 100 µM; in the data set with Panc02 it was more than 100 µM. Moreover, the 50% inhibitory concentration (IC50) in data set [10] was more than 10 µM; with 3LL cell line, more than 100 µM; in the data set on CT26 [13], more than 100 µM. In addition, the inhibition at 20 µM against CYP2B6 is 68%; on CYP2D6 it was 62%; on CYP2C9, 24%; against CYP2E1, 26%; against CYP1A2, 69%. Besides, the IC50 at 72 h in data set [11] was more than 100 µM.
`C[C@H](NC(=O)c1c(C(F)F)nn(C)c1Oc1cccc(C(F)(F)F)c1)c1ccc(C(=O)O)cc1` [PALUPIPRANT]: the inhibition in vivo at 75 mg/kg with CT26 [14] was determined as 39.9%. The remaining at 1 h, 10 µM in data set [1] came to 83.6%; in data set [3], 95.7%. Moreover, the microsomal CLint in [2] and in data set [8] was less than 9.6 µL/min/mg throughout. The half-life in [4] and in data set [12] was more than 2.42 h in each case. In addition, in [6], the IC50 came to 0.101 µM. In addition, the inhibition at 20 µM amounted to 77% on CYP2B6; 65% at CYP2D6; 33% against CYP2C9; 21% on CYP2E1; 59% on CYP1A2. For the same compound, the IC50 at 72 h in [11] was more than 100 µM.

By half-life is commonly meant the time needed for the level to fall by half in the phase considered. As a reminder, the IC50 is the concentration at which inhibition is half-maximal. As usually defined, the inhibition is how much of the control response was suppressed.
